Conditions: Crystal; for molar entropy: 100 kPa, Small (less than 1 g) adiabatic calorimetry; for mass density: 101.33 kPa, X-ray diffraction

O[C@H]1[C@H](O)[C@@H](O)[C@H](O)[C@@H](O)[C@H]1O [cis-1,2,3,5-trans-4,6-cyclohexanehexol]
Conditions	mass density [kg/m3]	molar entropy [J/K/mol]
5 K	–	0.0237
6 K	–	0.0492
7 K	–	0.091
8 K	–	0.1546
9 K	–	0.2451
10 K	–	0.3742
15 K	–	1.491
20 K	–	3.261
25 K	–	5.458
30 K	–	7.964
35 K	–	10.69
40 K	–	13.58
45 K	–	16.57
50 K	–	19.63
60 K	–	25.97
70 K	–	32.56
80 K	–	39.37
90 K	–	46.36
100 K	–	53.48
110 K	–	60.72
120 K	–	68.03
130 K	–	75.4
140 K	–	82.82
150 K	1577	90.26
160 K	–	97.71
170 K	–	105.2
175 K	1574	–
180 K	–	112.6
190 K	–	120.1
200 K	1574	127.6
210 K	–	135
220 K	–	142.4
225 K	1575	–
230 K	–	149.9
240 K	–	157.3
250 K	1572	164.8
260 K	–	172.2
270 K	–	179.6
273.15 K	–	182
275 K	1570	–
280 K	–	187.1
290 K	–	194.5
298.15 K	–	200.6
300 K	1569	202
310 K	–	209.4
320 K	–	216.9
325 K	1569	–
330 K	–	224.3
340 K	–	231.8
350 K	1566	–
375 K	1561	–
400 K	1559	–
425 K	1555	–
450 K	1553	–

Source: the NIST ThermoML archive (doi:10.1016/j.jct.2017.08.028)
